Test system: 817829-284-R-J1-PDC complex spheroids, viability
Assay: Anticancer human tumor 817829-284-R-J1-PDC patient-derived colon adenocarcinoma cell line growth inhibition [GQUAD]
Conditions: curve of first compound; second compound 0.0316 µM
Excerpt: DNA G-quadruplex Stabilizer Agents in Combinations in Complex Spheroids
A high-throughput screen of multi-cell type tumor spheroids was designed to identify active combinations of DNA G-quadruplex stabilizer agents and targeted small molecules. Complex spheroids include a stromal component modeled by human endothelial cells (HUVEC) and fibroblasts modeled by human mesenchymal stem cells (MSCs). The concentration ranges selected for each drug and investigational agent were based upon clinically achievable concentrations if the clinical Cmax of the agent was known.
Compounds. The drugs and investigational agents: pidnarulex (CX-5461; NSC782164), APTO-253 (NSC789042), BRACO-19 (NSC847499), peposertib (NSC802822), ceralasertib (NSC780249), elimusertib (NSC800525), camonsertib (NSC841442), AZD-1390 (NSC803789), olaparib (NSC753686), talazoparib (NSC767125), ART-558 (NSC835418), sotorasib (NSC818433), MRTX-1133 (NSC836407), SN-38 (NSC673596), topotecan (NSC609699), etoposide (NSC141540), doxorubicin (NSC123127), gemcitabine (NSC613327), 5-fluorouracil (NSC19893), paclitaxel (NSC125973), vemurafenib (NSC761431), panobinostat (NSC761190), R-306465 (JNJ-16241199; NSC773264), adavosertib (NSC754352), TP-3654 (NSC805149), carboplatin (NSC241240), KSQ-4279 (NSC840948), and staurosporine (NSC755774) were obtained from the National Cancer Institute (NCI) Developmental Therapeutics Program Chemical Repository (34). The FDA-approved anticancer drug set is available from the NCI Developmental Therapeutics Program. […] The stock solutions were prepared in dimethyl sulfoxide (DMSO, Sigma-Aldrich, St. Louis, MO, cat. D2650) at 800-fold the tested concentration and stored at -70 degrees C prior to their use. All drugs and investigational agents were tested over a range starting from a high concentration at or near the clinical Cmax and decreasing in half-log increments. If the clinical Cmax for an agent had not been determined, the highest concentration tested was 10 microM.
2.3 Cell Culture. All cells were maintained in an incubator at 37 degrees C and 5% CO2 with 95% humidity. The PDC lines were cultured according to standard operating procedures established by the NCI PDMR. All PDCs were thawed and cultured in Matrigel-coated flasks prepared with a working solution of 1X Ham's F-12 nutrient mix, without supplementation (Invitrogen, cat. 11765054), 100 U/mL penicillin-streptomycin (Invitrogen, cat. 15140122), and 2.5% Matrigel (Corning Inc., cat. 354248) for the first three passages. The 857933-349-R-J2-PDC line was cultured in 6C/Colon 1B media, which includes advanced DMEM/F-12 (Thermo Fisher Scientific, cat. 12634028), 10 mM HEPES (Thermo Fisher Scientific, cat. 15630080), 1X GlutaMAX supplement (Thermo Fisher Scientific, cat. 35050061), 0.1 mg/mL primocin (InvivoGen, cat. ant-pm-2), 10% defined fetal bovine serum, heat inactivated (HyClone Laboratories Inc., cat. SH30070.03HI), 50% L-WRN conditioned media (ATCC, cat. CRL-3276), 1.25 mM N-Acetyl-L-cysteine (Sigma-Aldrich, cat. A9165), 10 mM nicotinamide (Sigma-Aldrich, cat. N0636), 1X B-27 supplement (Thermo Fisher Scientific, cat. 17504044), 1X N-2 supplement (Thermo Fisher Scientific, cat. 17502048), 10 microM Y-27632 dihydrochloride (Tocris Bioscience, cat. 1254), and 50 ng/mL human EGF recombinant protein (Thermo Fisher Scientific, cat. PHG0311). The 485176-168-R4-J1-PDC line was cultured in Panc media, which includes all 6C/Colon 1B media components plus 100 ng/mL human FGF-10 (Thermo Fisher Scientific, cat. 100-26), 500 nM SB-431542 (Selleckchem, cat. S1067), and gastrin (Tocris, cat. 3006).
[…]
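Also: spheroids exposed to agents for 7 days before readout.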
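For viability, T/C in this document: percent viability relative to DMSO vehicle control taken as 100%.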

SMILES	IC50 [nM]
CC(C)(O)C1CCC(Nc2ccc3ncc(-c4cccc(C(F)(F)F)c4)n3n2)CC1 (configuration not stated) + CN(C)c1ccc(Nc2c3ccc(NC(=O)CCN4CCCC4)cc3nc3cc(NC(=O)CCN4CCCC4)ccc23)cc1	> 10000
CC1COCCN1c1cc(-c2ccnn2C)c2ccnc(-c3ccn[nH]3)c2n1 (configuration not stated) + Cc1[nH]c2ccc(F)cc2c1-c1nc2c3cccnc3c3ncccc3c2[nH]1	48.7
CC1COCCN1c1cc(C2(S(C)(=N)=O)CC2)nc(-c2ccnc3[nH]ccc23)n1 (configuration not stated) + Cc1[nH]c2ccc(F)cc2c1-c1nc2c3cccnc3c3ncccc3c2[nH]1	699
COc1ccc([C@@H](O)c2cc(-c3ncnc4cc(N5CCOCC5)ccc34)c(F)cc2Cl)nn1 + Cc1[nH]c2ccc(F)cc2c1-c1nc2c3cccnc3c3ncccc3c2[nH]1	> 10000

Same assay, conditions: curve of first compound; second compound 0.1 µM

SMILES	IC50 [nM]
CC(C)(O)C1CCC(Nc2ccc3ncc(-c4cccc(C(F)(F)F)c4)n3n2)CC1 (configuration not stated) + CN(C)c1ccc(Nc2c3ccc(NC(=O)CCN4CCCC4)cc3nc3cc(NC(=O)CCN4CCCC4)ccc23)cc1	3130
CC1COCCN1c1cc(-c2ccnn2C)c2ccnc(-c3ccn[nH]3)c2n1 (configuration not stated) + Cc1[nH]c2ccc(F)cc2c1-c1nc2c3cccnc3c3ncccc3c2[nH]1	< 31.6
CC1COCCN1c1cc(C2(S(C)(=N)=O)CC2)nc(-c2ccnc3[nH]ccc23)n1 (configuration not stated) + Cc1[nH]c2ccc(F)cc2c1-c1nc2c3cccnc3c3ncccc3c2[nH]1	701
COc1ccc([C@@H](O)c2cc(-c3ncnc4cc(N5CCOCC5)ccc34)c(F)cc2Cl)nn1 + Cc1[nH]c2ccc(F)cc2c1-c1nc2c3cccnc3c3ncccc3c2[nH]1	> 10000

Same assay, conditions: curve of first compound; second compound 0.316 µM

SMILES	IC50 [nM]
CC(C)(O)C1CCC(Nc2ccc3ncc(-c4cccc(C(F)(F)F)c4)n3n2)CC1 (configuration not stated) + CN(C)c1ccc(Nc2c3ccc(NC(=O)CCN4CCCC4)cc3nc3cc(NC(=O)CCN4CCCC4)ccc23)cc1	2570
CC1COCCN1c1cc(-c2ccnn2C)c2ccnc(-c3ccn[nH]3)c2n1 (configuration not stated) + Cc1[nH]c2ccc(F)cc2c1-c1nc2c3cccnc3c3ncccc3c2[nH]1	< 31.6
CC1COCCN1c1cc(C2(S(C)(=N)=O)CC2)nc(-c2ccnc3[nH]ccc23)n1 (configuration not stated) + Cc1[nH]c2ccc(F)cc2c1-c1nc2c3cccnc3c3ncccc3c2[nH]1	683
COc1ccc([C@@H](O)c2cc(-c3ncnc4cc(N5CCOCC5)ccc34)c(F)cc2Cl)nn1 + Cc1[nH]c2ccc(F)cc2c1-c1nc2c3cccnc3c3ncccc3c2[nH]1	> 10000

Same assay, conditions: curve of first compound; second compound 1 µM

SMILES	IC50 [nM]
CC(C)(O)C1CCC(Nc2ccc3ncc(-c4cccc(C(F)(F)F)c4)n3n2)CC1 (configuration not stated) + CN(C)c1ccc(Nc2c3ccc(NC(=O)CCN4CCCC4)cc3nc3cc(NC(=O)CCN4CCCC4)ccc23)cc1	2260
CC1COCCN1c1cc(-c2ccnn2C)c2ccnc(-c3ccn[nH]3)c2n1 (configuration not stated) + Cc1[nH]c2ccc(F)cc2c1-c1nc2c3cccnc3c3ncccc3c2[nH]1	< 31.6
CC1COCCN1c1cc(C2(S(C)(=N)=O)CC2)nc(-c2ccnc3[nH]ccc23)n1 (configuration not stated) + Cc1[nH]c2ccc(F)cc2c1-c1nc2c3cccnc3c3ncccc3c2[nH]1	709
COc1ccc([C@@H](O)c2cc(-c3ncnc4cc(N5CCOCC5)ccc34)c(F)cc2Cl)nn1 + Cc1[nH]c2ccc(F)cc2c1-c1nc2c3cccnc3c3ncccc3c2[nH]1	9780

Same assay, conditions: curve of first compound; second compound 3.16 µM

SMILES	IC50 [nM]
CC(C)(O)C1CCC(Nc2ccc3ncc(-c4cccc(C(F)(F)F)c4)n3n2)CC1 (configuration not stated) + CN(C)c1ccc(Nc2c3ccc(NC(=O)CCN4CCCC4)cc3nc3cc(NC(=O)CCN4CCCC4)ccc23)cc1	2100
CC1COCCN1c1cc(-c2ccnn2C)c2ccnc(-c3ccn[nH]3)c2n1 (configuration not stated) + Cc1[nH]c2ccc(F)cc2c1-c1nc2c3cccnc3c3ncccc3c2[nH]1	< 31.6
CC1COCCN1c1cc(C2(S(C)(=N)=O)CC2)nc(-c2ccnc3[nH]ccc23)n1 (configuration not stated) + Cc1[nH]c2ccc(F)cc2c1-c1nc2c3cccnc3c3ncccc3c2[nH]1	508
COc1ccc([C@@H](O)c2cc(-c3ncnc4cc(N5CCOCC5)ccc34)c(F)cc2Cl)nn1 + Cc1[nH]c2ccc(F)cc2c1-c1nc2c3cccnc3c3ncccc3c2[nH]1	2260

Same assay, conditions: curve of first compound; second compound 10 µM

SMILES	IC50 [nM]
CC(C)(O)C1CCC(Nc2ccc3ncc(-c4cccc(C(F)(F)F)c4)n3n2)CC1 (configuration not stated) + CN(C)c1ccc(Nc2c3ccc(NC(=O)CCN4CCCC4)cc3nc3cc(NC(=O)CCN4CCCC4)ccc23)cc1	1170
CC1COCCN1c1cc(-c2ccnn2C)c2ccnc(-c3ccn[nH]3)c2n1 (configuration not stated) + Cc1[nH]c2ccc(F)cc2c1-c1nc2c3cccnc3c3ncccc3c2[nH]1	< 31.6
CC1COCCN1c1cc(C2(S(C)(=N)=O)CC2)nc(-c2ccnc3[nH]ccc23)n1 (configuration not stated) + Cc1[nH]c2ccc(F)cc2c1-c1nc2c3cccnc3c3ncccc3c2[nH]1	< 31.6
COc1ccc([C@@H](O)c2cc(-c3ncnc4cc(N5CCOCC5)ccc34)c(F)cc2Cl)nn1 + Cc1[nH]c2ccc(F)cc2c1-c1nc2c3cccnc3c3ncccc3c2[nH]1	337

Same assay, conditions: second compound 0.0316 µM; first compound 0.0316 µM; stronger effect = lower value

SMILES	viability, T/C [%]
CC(C)(O)C1CCC(Nc2ccc3ncc(-c4cccc(C(F)(F)F)c4)n3n2)CC1 (configuration not stated) + CN(C)c1ccc(Nc2c3ccc(NC(=O)CCN4CCCC4)cc3nc3cc(NC(=O)CCN4CCCC4)ccc23)cc1	102
CC1COCCN1c1cc(-c2ccnn2C)c2ccnc(-c3ccn[nH]3)c2n1 (configuration not stated) + Cc1[nH]c2ccc(F)cc2c1-c1nc2c3cccnc3c3ncccc3c2[nH]1	72.5
CC1COCCN1c1cc(C2(S(C)(=N)=O)CC2)nc(-c2ccnc3[nH]ccc23)n1 (configuration not stated) + Cc1[nH]c2ccc(F)cc2c1-c1nc2c3cccnc3c3ncccc3c2[nH]1	110
COc1ccc([C@@H](O)c2cc(-c3ncnc4cc(N5CCOCC5)ccc34)c(F)cc2Cl)nn1 + Cc1[nH]c2ccc(F)cc2c1-c1nc2c3cccnc3c3ncccc3c2[nH]1	110

Same assay, conditions: second compound 0.0316 µM; first compound 0.1 µM; stronger effect = lower value

SMILES	viability, T/C [%]
CC(C)(O)C1CCC(Nc2ccc3ncc(-c4cccc(C(F)(F)F)c4)n3n2)CC1 (configuration not stated) + CN(C)c1ccc(Nc2c3ccc(NC(=O)CCN4CCCC4)cc3nc3cc(NC(=O)CCN4CCCC4)ccc23)cc1	100
CC1COCCN1c1cc(-c2ccnn2C)c2ccnc(-c3ccn[nH]3)c2n1 (configuration not stated) + Cc1[nH]c2ccc(F)cc2c1-c1nc2c3cccnc3c3ncccc3c2[nH]1	12.9
CC1COCCN1c1cc(C2(S(C)(=N)=O)CC2)nc(-c2ccnc3[nH]ccc23)n1 (configuration not stated) + Cc1[nH]c2ccc(F)cc2c1-c1nc2c3cccnc3c3ncccc3c2[nH]1	95.6
COc1ccc([C@@H](O)c2cc(-c3ncnc4cc(N5CCOCC5)ccc34)c(F)cc2Cl)nn1 + Cc1[nH]c2ccc(F)cc2c1-c1nc2c3cccnc3c3ncccc3c2[nH]1	81.3

Same assay, conditions: second compound 0.0316 µM; first compound 0.316 µM; stronger effect = lower value

SMILES	viability, T/C [%]
CC(C)(O)C1CCC(Nc2ccc3ncc(-c4cccc(C(F)(F)F)c4)n3n2)CC1 (configuration not stated) + CN(C)c1ccc(Nc2c3ccc(NC(=O)CCN4CCCC4)cc3nc3cc(NC(=O)CCN4CCCC4)ccc23)cc1	111
CC1COCCN1c1cc(-c2ccnn2C)c2ccnc(-c3ccn[nH]3)c2n1 (configuration not stated) + Cc1[nH]c2ccc(F)cc2c1-c1nc2c3cccnc3c3ncccc3c2[nH]1	9.49
CC1COCCN1c1cc(C2(S(C)(=N)=O)CC2)nc(-c2ccnc3[nH]ccc23)n1 (configuration not stated) + Cc1[nH]c2ccc(F)cc2c1-c1nc2c3cccnc3c3ncccc3c2[nH]1	106
COc1ccc([C@@H](O)c2cc(-c3ncnc4cc(N5CCOCC5)ccc34)c(F)cc2Cl)nn1 + Cc1[nH]c2ccc(F)cc2c1-c1nc2c3cccnc3c3ncccc3c2[nH]1	103

Same assay, conditions: second compound 0.0316 µM; first compound 1 µM; stronger effect = lower value

SMILES	viability, T/C [%]
CC(C)(O)C1CCC(Nc2ccc3ncc(-c4cccc(C(F)(F)F)c4)n3n2)CC1 (configuration not stated) + CN(C)c1ccc(Nc2c3ccc(NC(=O)CCN4CCCC4)cc3nc3cc(NC(=O)CCN4CCCC4)ccc23)cc1	88.4
CC1COCCN1c1cc(-c2ccnn2C)c2ccnc(-c3ccn[nH]3)c2n1 (configuration not stated) + Cc1[nH]c2ccc(F)cc2c1-c1nc2c3cccnc3c3ncccc3c2[nH]1	4.92
CC1COCCN1c1cc(C2(S(C)(=N)=O)CC2)nc(-c2ccnc3[nH]ccc23)n1 (configuration not stated) + Cc1[nH]c2ccc(F)cc2c1-c1nc2c3cccnc3c3ncccc3c2[nH]1	25.7
COc1ccc([C@@H](O)c2cc(-c3ncnc4cc(N5CCOCC5)ccc34)c(F)cc2Cl)nn1 + Cc1[nH]c2ccc(F)cc2c1-c1nc2c3cccnc3c3ncccc3c2[nH]1	79.8

Same assay, conditions: second compound 0.0316 µM; first compound 3.16 µM; stronger effect = lower value

SMILES	viability, T/C [%]
CC(C)(O)C1CCC(Nc2ccc3ncc(-c4cccc(C(F)(F)F)c4)n3n2)CC1 (configuration not stated) + CN(C)c1ccc(Nc2c3ccc(NC(=O)CCN4CCCC4)cc3nc3cc(NC(=O)CCN4CCCC4)ccc23)cc1	35.7
CC1COCCN1c1cc(-c2ccnn2C)c2ccnc(-c3ccn[nH]3)c2n1 (configuration not stated) + Cc1[nH]c2ccc(F)cc2c1-c1nc2c3cccnc3c3ncccc3c2[nH]1	6.02

From PubChem BioAssay AID2060503 (Molecular Pharmacology Branch, DTP, NCI, 2025)
